We go through 16 molecules from PubChem BioAssay (NCI).

Among the test systems are SW-620 colon; MOLT-4 leukemia; OVCAR-3 ovarian; HOP-92 NSCLC; HOP-62 NSCLC; SK-MEL-2 melanoma; SF-268 CNS; KM12 colon; COLO 205 colon; A498 renal.
Assay in all cases: inhibition of tumour cell growth, NCI panel, 48 h

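Compound exposure: 48 hours, 5 concentrations, 96-well plates. The concentration for 50% growth inhibition is given as GI50. TGI marks complete inhibition of growth.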 A value given as a limit tells only on which side of the number the result lay.

`O=C(N/N=C/c1cc(Br)cc(Br)c1[O-])c1ccccc1O.O=C(N/N=C/c1cc(Br)cc(Br)c1[O-])c1ccccc1O.[Cl-].[Fe+3]`: the TGI in the assay with SW-620 colon was 14 µM; in the assay with MOLT-4 leukemia, over 100 µM; with OVCAR-3 ovarian, 12.8 µM; in the assay on HOP-92 NSCLC, 6.12 µM; in the assay on HOP-62 NSCLC, 5.48 µM; in the assay on SK-MEL-2 melanoma, 5.43 µM. The values for the TGI with SF-268 CNS and in the assay with KM12 colon were 33.1 µM and 81.6 µM, respectively.
As to `CCOC(=O)C1=C(C)N2CCCOC2(C)C(C(=O)OC)C1c1cccc([N+](=O)[O-])c1` (stereo not given), the TGI with SW-620 colon, in the assay with MOLT-4 leukemia, with OVCAR-3 ovarian, with HOP-92 NSCLC, in the assay on COLO 205 colon and with HOP-62 NSCLC was over 100 µM each time. For the same molecule, the TGI in the assay on SK-MEL-2 melanoma, with SF-268 CNS and in the assay on KM12 colon was over 100 µM throughout.
As for `C#CCCCCC#CC1CCCC1C1=CC(=O)c2ccccc21` (stereo not given), the TGI in the assay on SW-620 colon is 6.39 µM; in the assay on MOLT-4 leukemia, over 100 µM; in the assay with OVCAR-3 ovarian it was 17.8 µM; with HOP-92 NSCLC, 16.1 µM; with A498 renal, 28.3 µM; in the assay on COLO 205 colon, 28.6 µM. For the same molecule, the TGI amounted to 20.3 µM in the assay on HOP-62 NSCLC, 24.8 µM in the assay with SK-MEL-2 melanoma, 11.8 µM in the assay on SF-268 CNS and 19.6 µM in the assay with KM12 colon.
For the molecule `CC(=O)O[C@H]1CC[C@]2(C)[C@H]3C(=O)C=C4[C@@H]5C[C@](C)(C(=O)N6CCCNCC6)CC[C@]5(C)CC[C@@]4(C)[C@]3(C)CC[C@H]2C1(C)C`, the GI50 in the assay on SW-620 colon is 1.67 µM; in the assay on OVCAR-3 ovarian, 1.76 µM; in the assay with HOP-92 NSCLC, 1.08 µM; with A498 renal it was 1.71 µM; with HOP-62 NSCLC, 1.78 µM; in the assay on SK-MEL-2 melanoma, 1.93 µM. For the same molecule, the GI50 in the assay on SF-268 CNS was 1.8 µM; in the assay with KM12 colon, 1.71 µM. For the same molecule, the TGI in the assay on SW-620 colon stood at 3.22 µM; in the assay on OVCAR-3 ovarian, 3.29 µM; with HOP-92 NSCLC, 2.41 µM; in the assay with A498 renal it was 3.1 µM; in the assay with HOP-62 NSCLC, 4.14 µM; with SK-MEL-2 melanoma it was 3.7 µM. Further, the TGI worked out at 3.58 µM in the assay with SF-268 CNS and 3.21 µM in the assay with KM12 colon.
In the case of `CCCNCC(O)/C=C/[Si](C)(C)C` (stereo not given) (tested in a mixture with another compound), the TGI in the assay with SW-620 colon, in the assay with OVCAR-3 ovarian, in the assay on HOP-92 NSCLC, in the assay on A498 renal, in the assay on COLO 205 colon and with SK-MEL-2 melanoma was over 100 µM in each case. This molecule also showed a TGI in the assay with KM12 colon of over 100 µM.
For `CC1(C)[C@@H]2C[C@H]1C(Cc1ccccc1C[C@H]1c3cc(-c4ccccn4)ncc3[C@H]3C[C@@H]1C3(C)C)c1cc(-c3ccccn3)ncc12` (stereo not given in full), the TGI was over 100 µM in the assay with SW-620 colon; 1.23 µM with MOLT-4 leukemia; 1.45 µM in the assay on OVCAR-3 ovarian; 4.89 µM in the assay with A498 renal; over 100 µM with COLO 205 colon; 0.328 µM in the assay on HOP-62 NSCLC. Besides, the TGI in the assay on SK-MEL-2 melanoma was over 90.3 µM; in the assay with SF-268 CNS it was over 36.2 µM; with KM12 colon, 13.4 µM.
In the case of `N=C(N)SC1c2ccccc2-c2cc([N+](=O)[O-])ccc21` (stereo not given), the TGI in the assay on SW-620 colon worked out at 22.1 µM; with MOLT-4 leukemia, 17.5 µM; in the assay with OVCAR-3 ovarian, 7.47 µM; in the assay with HOP-92 NSCLC, 33.5 µM; with A498 renal it was 14.6 µM; in the assay with COLO 205 colon, 9.77 µM. In addition, the TGI with HOP-62 NSCLC was 21.2 µM; in the assay on SK-MEL-2 melanoma, 13.9 µM; with SF-268 CNS, 14.3 µM; in the assay with KM12 colon, 11.4 µM.
Turning to `CN(C)CCNc1ccc2nnn3c4ccc(Cl)cc4c(=O)c1c23`, the TGI was 18 µM in the assay on SW-620 colon; 13.3 µM in the assay with MOLT-4 leukemia; 23 µM in the assay with OVCAR-3 ovarian; 14.2 µM in the assay on HOP-92 NSCLC; 11.3 µM in the assay with A498 renal; 10.5 µM in the assay with COLO 205 colon. Further, the TGI in the assay on HOP-62 NSCLC worked out at 21.4 µM; in the assay with SK-MEL-2 melanoma, 16.8 µM; in the assay with SF-268 CNS, 23.1 µM; in the assay on KM12 colon, 20.8 µM.
As for `CN[C@@H]1[C@H](O)[C@H](NC)[C@H]2O[C@@]3(O)C(=O)C[C@@H](C)O[C@H]3O[C@@H]2[C@H]1O`, the TGI in the assay on SW-620 colon, with MOLT-4 leukemia, in the assay on OVCAR-3 ovarian, in the assay on HOP-92 NSCLC, in the assay with A498 renal and with COLO 205 colon was over 100 µM in each case. For the same molecule, the TGI with HOP-62 NSCLC, in the assay with SF-268 CNS and with KM12 colon was over 100 µM each time.
For the molecule `C[n+]1ccccc1/C=C/c1ccc2c(c1)OCO2`, the TGI in the assay with SW-620 colon, in the assay on MOLT-4 leukemia, in the assay on OVCAR-3 ovarian, with A498 renal, in the assay on COLO 205 colon and in the assay with HOP-62 NSCLC was over 10 µM each time. Besides, the TGI in the assay with SK-MEL-2 melanoma, in the assay with SF-268 CNS and in the assay with KM12 colon was over 10 µM each time.
`O=[N+]([O-])/C=C/c1cccc(F)c1`: the TGI in the assay on SW-620 colon came to 8.88 µM; in the assay on OVCAR-3 ovarian, 7.38 µM; in the assay with HOP-92 NSCLC, 27.6 µM; in the assay with A498 renal, 27.4 µM; in the assay on COLO 205 colon, 8.02 µM; in the assay on HOP-62 NSCLC, 32.4 µM. Besides, the TGI with SK-MEL-2 melanoma was determined as 29.9 µM; in the assay with SF-268 CNS, 29.4 µM; with KM12 colon, 10.3 µM.
As to `CCCCCCc1ccc(O)cc1O`, the TGI is over 100 µM in the assay on SW-620 colon; 97.4 µM in the assay on MOLT-4 leukemia; over 100 µM in the assay on OVCAR-3 ovarian; 86.9 µM in the assay with HOP-92 NSCLC; over 100 µM in the assay on A498 renal; over 100 µM in the assay with COLO 205 colon. Also, the TGI was over 100 µM with HOP-62 NSCLC, 64 µM in the assay with SK-MEL-2 melanoma, over 100 µM in the assay on SF-268 CNS and over 100 µM with KM12 colon.
Turning to `COc1cc2c(cc1OC)C(C1(O)CCCCC1)NCC2` (stereo not given), the TGI in the assay on SW-620 colon, with MOLT-4 leukemia, in the assay on OVCAR-3 ovarian, with HOP-92 NSCLC, with COLO 205 colon and with HOP-62 NSCLC was over 100 µM each time. The TGI in the assay with SK-MEL-2 melanoma, in the assay with SF-268 CNS and with KM12 colon was over 100 µM in each case.
`COc1cc2c(cc1O)CCN[C@@]21CS[C@H]2c3c(OC(C)=O)c(C)c4c(c3C(COC1=O)N1C2C2c3c(cc(C)c(OC)c3O)CC([C@@H]1O)N2C)OCO4` (stereo not given in full): the GI50 with MOLT-4 leukemia was under 1 pM; in the assay on HOP-92 NSCLC, 0.00347 µM; with KM12 colon it was 0.00337 µM. Moreover, the TGI with HOP-92 NSCLC is 0.064 µM; with HOP-62 NSCLC, under 1e-06 µM; in the assay with KM12 colon, 0.0161 µM.
With `NC(Cc1ccc2oc3cc(=O)c4ccccc4c-3nc2c1)C(=O)O` (stereo not given), the TGI was 80.9 µM in the assay on SW-620 colon; over 88.3 µM in the assay on MOLT-4 leukemia; 81.5 µM in the assay on OVCAR-3 ovarian; over 100 µM in the assay with HOP-92 NSCLC; over 84.6 µM in the assay on A498 renal; 21.5 µM in the assay with COLO 205 colon. Further, the TGI with HOP-62 NSCLC is 76.3 µM; in the assay on SK-MEL-2 melanoma, 74.3 µM; in the assay with SF-268 CNS, over 100 µM; in the assay with KM12 colon, over 100 µM.
`Cc1c(Cl)c(S(N)(=O)=O)cc(S(N)(=O)=O)c1NC(=O)c1ccc(Cl)cc1`: the TGI in the assay with SW-620 colon, with MOLT-4 leukemia, with OVCAR-3 ovarian, in the assay with HOP-92 NSCLC, in the assay with A498 renal and with COLO 205 colon was over 100 µM in each case. Besides, the TGI with HOP-62 NSCLC, in the assay on SF-268 CNS and with KM12 colon was over 100 µM throughout.
